The test system of one series is Akt. In words: Western blot of Akt phosphorylation and total Akt in THP-1 cells. The note with it: THP-1, 10 or 25 μM SB203580 1 h prior to 50 μM apigenin for 3 h. The format is cell-based, human. As for the experimental part: FIG. 5. Apigenin affects Akt phosphorylation. THP-1 cells were treated with 50 μM apigenin for different lengths of time. Lysates were separated by SDS-PAGE, transferred and immunoblotted with anti-phospho-Akt (pSer 473), anti-phospho-Akt (pThr 308), total Akt, and â-tubulin antibodies.
FIG. 6. Apigenin induces the activation of p38 and inactivation of Akt. A. THP-1 cells were treated with 50 μM apigenin for various lengths of time. Lysates were separated by SDS-PAGE, transferred and analyzed by immunoblots with anti-phospho-p38 (pp 38) and anti-total-p38 antibodies. B. […] Lysates were analyzed by immunoblotting with anti-phospho-Akt (pSer 473), anti-phospho-p38 (p-p38), and anti-total-p38 antibodies.
Extracts from 3×10^6 cells were prepared by incubating cells for 30 min on ice in lysis buffer (50 mM Tris, 10 mM EDTA 0.5% NP-40, 10 mM Na-glycerophosphate, 5 mM Na-pyrophosphate, 50 mM NaF, 1 mM orthovanadate, 1 mM DTT, 0.1 mM PMSF, 2 μg/ml of protease inhibitors: chymostatin, pepstatin, antipain, and leupeptin). Cell lysates were centrifuged (14,000×g for 10 min at 4° C.) and the supernatants were stored for at −70° C. for future analysis. Equal amounts of protein were loaded and separated by SDS-PAGE, transferred onto nitrocellulose membranes and probed with antibodies of interest followed by horseradish peroxidase conjugated secondary antibody and visualized by enhanced chemiluminescence (Amersham, Arlington Heights, Ill.). Phospho-Ser473-Akt, phospho-Thr308-Alt, total AKT, phospho-p38 and total p38 antibodies were obtained from Cell Signaling (Boston, Mass.). â-tubulin antibody was obtained from Upstate (Charlottesville, Va.).
On the technique in general: In western blotting, separated proteins are transferred to a membrane and probed.

The subject of another series is p38. Briefly: Western blot of p38 phosphorylation in THP-1 cells. It counts as cell-based, human. The note with it: THP-1, 10 or 25 μM SB203580 1 h prior to 50 μM apigenin for 3 h.
Series [1] concerns THP-1 cells. In words: Cell survival and apoptosis by calcein AM/PI staining. The format is cell-based, human. As for the experimental part: FIG. 2. Apigenin induces cell death in monocytic leukemia cells. THP-1 and U937 leukemia cells were treated for various lengths of time with 50 μM apigenin or left untreated (NT) and stained with calcein AM and PI as described in Material and Methods to evaluate the percentage of cell survival. (A) THP cells after 12 h cells treated with 50 μM apigenin or with DMSO (NT). (B) The percentage of cell survival represented by means ±SEM (N=3).
(§1) FIG. 4. Caspase-3 activation is required for apigenin-induced apoptosis. THP-1 cells were treated for 12 h with 50 μM apigenin alone or pretreated with 20 μM DEVD-FMK for 1 h prior to the addition of apigenin. (A) Cells were then stained with calcein AM and 24 PI and the percentage of apoptotic cells was determined. (B) Lysates from cells treated as described above were used to determined caspase-3 activity by the DEVD-AFC assay. All data represents means ±SEM (N=5).
(§2) FIG. 7. Apigenin induced p38 activation is not required for apoptosis. A. Cells were pretreated for 1 h prior to addition of 50 μM apigenin or DMSO (−) with 10 or 25 μM concentrations of SB203580 or DMSO (−) for 12 h. The percentage of apoptotic cells was determined by calcein AM with PI stained cells. Data represents means ±SEM (N=5 p>0.05). B. Lysates from the same treatments were used to determined caspase-3 activity by the DEVD-AFC assay. Data represents means ±SEM (N=5 p>0.05).
To investigate apoptosis, cells were plated at a density of 1×10^6 cells/well. After treatment, cells were collected and washed in PBS. Cells were then incubated in RPMI (no phenol red) and 1 μg/ml calcein AM for 30 min and 5×10−2 ng/ml propidium iodide (PI) for 5 min. Cells were washed twice and resuspended in PBS. Cells were viewed using a fluorescent microscope (Olympus, Melville, N.Y.). At least 200 cells were counted. Cells calcein AM positive (green) in the absence of PI (red) were considered alive while cells undergoing apoptosis are green with red. Number of green cells or green with red cells was counted over total number of cells (green alone and green with red) to express cell survival or apoptotic cell percentage respectively.

For the next series, the system named is caspase-3. Briefly: Caspase-3 activity, DEVD-AFC assay, THP-1 lysates. The format is cell-based, human. As for the experimental part:
FIG. 3. Apigenin induces caspase activation in monocytic leukemia. THP-1 (top) and U937 (bottom) leukemia cells were treated for various lengths of time with 50 μM apigenin or DMSO (NT). (A and C) Caspase-9 activity was determined by the LEHDAFC assay. (B and D) Caspase-3 activity was determined by the DEVD-AFC assay. Data represents means ±SEM (N=3).
as §1, §2
For measurements of caspase activity, cells were plated at a density of 1.5×10^6 cells/well. After treatment, cells extracts were prepared as previously described (Doseff, A. I., Baker J. H., Bourgeois T. A. and Wewers M. D. (2003) Interleukin-4-induced zpoptosis entails caspase activation and suppression of extracellular signal-regulated kinase phosphorylation. Am. J. Resp. Cell Mol. Biol., 29, 367-374). […] Levels of released AFC were measured using Cytofluor 400 fluorimeter (Filters: excitation 400 nm, emission 508 nm; Perspective Co., Framingham, Mass.).

The subject of series [2] is THP-1 cells.
The next series deals with A549 cells. In words: Cell viability assay (CellTiter 96 / MTT, A490). The format is cell-based. The note with it: A549, up to 500 μM naringenin, 24 h; reduced by. On the procedure:
(§3) FIG. 1. Effect of apigenin and naringenin in cell survival of cancer cells. (A) Structure of the flavonoids apigenin and naringenin. (B) THP-1, U937, A549, and MCF-7 cells were treated with various doses of apigenin or naringenin for 24 h. After the treatment, the percentage of cell proliferation was calculated as the ratio of treated cells to control cells as determined by the MTT method (A490). Data represents means ±SEM (N=9). […] Cells were plated at a density of 2×10^4 cells/well into 96-well plates and treated with flavonoids at indicated concentrations for 24 h. Absorbance at 490 nm (A490) was recorded using an ELISA plate reader (Bio-Tek ELx800, KC Junior, Winooski, Vt.).

The next series deals with MCF-7 cells. Briefly: Cell viability assay (CellTiter 96 / MTT, A490). It counts as cell-based. The note with it: MCF-7, up to 500 μM naringenin, 24 h; reduced by. As for the experimental part:
as §3

The next series concerns U937 cells. Briefly: Cell viability assay (CellTiter 96 / MTT, A490). The format is cell-based, human. The note with it: U937, 500 μM naringenin, 24 h; reduced to. As for the experimental part:
as §3

The test system of series [3] is THP-1 cells. In words: Cell viability assay (CellTiter 96 / MTT, A490). The format is cell-based, human. The note with it: THP-1, 500 μM naringenin, 24 h; reduced to. On the procedure:
as §3

The mark [4] stands for this setting: THP-1, 20 μM DEVD-FMK 1 h prior to 50 μM apigenin for 12 h.

Some results are limits rather than exact numbers.

Description for p38: A. THP-1 cells were treated with 50 μM apigenin for various lengths of time. Lysates were separated by SDS-PAGE, transferred and analyzed by immunoblots with anti-phospho-p38 (pp 38) and anti-total-p38 antibodies. B. THP-1 cells were treated for 6 hr with 50 μM apigenin alone (lane 2), treated with the apigenin diluent (lane 1), pretreatred with 10 or 25 μM SB203580 for 1 hr prior to the addition of apigenin (lanes 3 and 4) or with the SB203580 inhibitor alone (lanes 5 and 6).
Extracts from 3×10^6 cells were prepared by incubating cells for 30 min on ice in lysis buffer (50 mM Tris, 10 mM EDTA 0.5% NP-40, 10 mM Na-glycerophosphate, 5 mM Na-pyrophosphate, 50 mM NaF, 1 mM orthovanadate, 1 mM DTT, 0.1 mM PMSF, 2 μg/ml of protease inhibitors: chymostatin, pepstatin, antipain, and leupeptin). Cell lysates were centrifuged (14,000×g for 10 min at 4° C.) and the supernatants were stored for at −70° C. for future analysis. Equal amounts of protein were loaded and separated by SDS-PAGE, transferred onto nitrocellulose membranes and probed with antibodies of interest followed by horseradish peroxidase conjugated secondary antibody and visualized by enhanced chemiluminescence (Amersham, Arlington Heights, Ill.). […]

On to `C[S+]([O-])c1ccc(-c2nc(-c3ccncc3)c(-c3ccc(F)cc3)[nH]2)cc1` (centres unmarked) [SB203580, reference compound], for which, in the series on Akt, the “Akt phosphorylation at Ser473” value is listed as “increase”. Also, in the series on p38, the “apigenin-induced p38 phosphorylation” value is given as “significantly reduced”. Also, the “number of apoptotic cells induced by apigenin” value with THP-1 cells [1] (THP-1, SB203580 (10 or 25 μM) 1 h prior to 50 μM apigenin, 12 h, vs apigenin alone, P>0.05) was “did not result in a reduction”. Besides, in the series on caspase-3 (THP-1, SB203580 and 50 μM apigenin vs apigenin alone, P>0.05), the caspase-3 activity result is recorded as “similar”.
As to `O=C1C[C@@H](c2ccc(O)cc2)Oc2cc(O)cc(O)c21` [naringenin, reference compound], in the series with THP-1 cells [2], the “conversion to another chemical entity in treated cells” value is reported as “neither one of these two compounds is significantly converted”. For the same compound, the “reduction of cell proliferation” value with A549 cells and with MCF-7 cells was 20% each time. In addition, the “cell proliferation (ratio of treated to control cells)” value in the series with U937 cells and with THP-1 cells [3] was 60% throughout.
Take “DEVD-FMK: caspase-3 inhibitor obtained from Enzyme System Products [reference compound]”: the apoptotic cells in the series on THP-1 cells [1] (setting [4]) was less than 10%. The “effect on apigenin-induced caspase-3 activity” value with caspase-3 (setting [4]) is recorded as “inhibited the apigenin-induced activation of caspase-3 to the levels observed in untreated cells”.

The values are drawn from patent US20080200538A1, “Inhibition of Monocyte Survival, Differentiation, or Proliferation” (The Ohio State University Research Foundation, priority 2005, published 2008).
